What all share (format): functional, cell-based
The target of series [1] is T1, Solute carrier organic anion transporter family member 1A4 (Rattus norvegicus, UniProt O35913).
T1 sequence (O35913 whole entry): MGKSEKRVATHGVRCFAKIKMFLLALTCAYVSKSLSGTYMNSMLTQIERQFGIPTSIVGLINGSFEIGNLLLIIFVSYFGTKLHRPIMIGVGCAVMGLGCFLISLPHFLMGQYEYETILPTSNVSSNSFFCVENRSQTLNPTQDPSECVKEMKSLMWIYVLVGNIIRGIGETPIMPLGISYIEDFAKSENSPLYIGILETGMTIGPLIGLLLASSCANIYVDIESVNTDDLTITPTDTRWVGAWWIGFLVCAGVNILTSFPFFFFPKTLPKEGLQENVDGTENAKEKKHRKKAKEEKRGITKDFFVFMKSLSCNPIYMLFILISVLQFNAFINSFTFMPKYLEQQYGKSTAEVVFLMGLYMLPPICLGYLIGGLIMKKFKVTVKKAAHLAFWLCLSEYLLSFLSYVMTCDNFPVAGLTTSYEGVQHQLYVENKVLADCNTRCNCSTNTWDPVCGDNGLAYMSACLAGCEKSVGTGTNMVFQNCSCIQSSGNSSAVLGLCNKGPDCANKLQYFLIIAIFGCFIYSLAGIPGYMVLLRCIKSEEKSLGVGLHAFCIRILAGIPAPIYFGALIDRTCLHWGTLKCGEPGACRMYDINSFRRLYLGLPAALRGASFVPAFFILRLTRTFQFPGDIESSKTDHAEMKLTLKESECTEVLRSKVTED
The series can be described thus: TP_TRANSPORTER: uptake in Oatp2-expressing 293c18 cells. The conditions noted are these: human, hek293-ebna.

Series [2] deals with T2, Solute carrier organic anion transporter family member 1A1 (Rattus norvegicus, UniProt P46720).
T2 sequence (P46720 whole entry): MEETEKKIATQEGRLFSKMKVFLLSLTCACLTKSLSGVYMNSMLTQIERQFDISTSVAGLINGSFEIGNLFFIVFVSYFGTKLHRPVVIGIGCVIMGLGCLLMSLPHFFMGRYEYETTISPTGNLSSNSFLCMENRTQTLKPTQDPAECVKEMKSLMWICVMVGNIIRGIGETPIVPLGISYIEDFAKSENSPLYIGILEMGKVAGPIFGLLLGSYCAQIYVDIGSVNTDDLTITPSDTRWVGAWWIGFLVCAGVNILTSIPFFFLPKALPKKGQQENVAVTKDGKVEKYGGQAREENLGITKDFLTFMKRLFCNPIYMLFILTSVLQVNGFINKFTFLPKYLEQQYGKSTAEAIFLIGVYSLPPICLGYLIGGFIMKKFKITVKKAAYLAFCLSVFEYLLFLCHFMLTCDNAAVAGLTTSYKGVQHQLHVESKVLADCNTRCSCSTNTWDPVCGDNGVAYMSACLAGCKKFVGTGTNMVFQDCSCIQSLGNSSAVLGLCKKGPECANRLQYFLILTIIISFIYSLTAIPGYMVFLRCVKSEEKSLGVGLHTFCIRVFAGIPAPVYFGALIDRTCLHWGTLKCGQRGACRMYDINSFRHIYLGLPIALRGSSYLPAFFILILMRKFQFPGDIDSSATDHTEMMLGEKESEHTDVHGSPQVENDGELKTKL
Description: TP_TRANSPORTER: inhibition of Taurocholate uptake (Taurocholate: 0.5 uM, Pravastatin: 50 uM) in Oatp1-expressing 293c18 cells. The conditions noted are these: human, hek293-ebna.

For series [3], the target named is T3, Solute carrier organic anion transporter family member 1A2 (Homo sapiens, UniProt P46721).
T3 sequence (P46721 whole entry): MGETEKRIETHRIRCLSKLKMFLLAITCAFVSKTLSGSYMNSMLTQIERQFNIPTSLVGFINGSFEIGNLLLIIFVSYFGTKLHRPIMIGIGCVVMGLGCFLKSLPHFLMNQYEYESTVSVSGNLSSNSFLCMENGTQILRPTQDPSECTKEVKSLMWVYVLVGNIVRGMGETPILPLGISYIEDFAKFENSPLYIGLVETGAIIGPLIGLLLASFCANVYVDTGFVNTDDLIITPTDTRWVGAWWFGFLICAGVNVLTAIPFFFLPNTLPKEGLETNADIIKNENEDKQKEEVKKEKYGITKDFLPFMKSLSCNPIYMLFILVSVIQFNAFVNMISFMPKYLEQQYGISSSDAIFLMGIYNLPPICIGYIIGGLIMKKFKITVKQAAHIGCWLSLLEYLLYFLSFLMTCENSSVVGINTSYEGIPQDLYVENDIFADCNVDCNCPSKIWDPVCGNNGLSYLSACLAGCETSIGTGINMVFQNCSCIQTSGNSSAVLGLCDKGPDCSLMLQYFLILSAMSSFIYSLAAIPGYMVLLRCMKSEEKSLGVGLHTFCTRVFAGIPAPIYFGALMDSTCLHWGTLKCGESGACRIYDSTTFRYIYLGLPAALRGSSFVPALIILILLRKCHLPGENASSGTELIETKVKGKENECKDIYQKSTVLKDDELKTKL
The series can be described thus: TP_TRANSPORTER: uptake in OATP-A-expressing 293c18 cell. The note with it: hek293-ebna.

On to `CC[C@H](C)C(=O)O[C@H]1C[C@H](O)C=C2C=C[C@H](C)[C@H](CC[C@@H](O)C[C@@H](O)CC(=O)O)[C@H]21` [PRAVASTATIN], for which the Activity entry in series [1] was “is not a substrate [-]”; in series [2] it was “inhibitor [+]”; in series [3], “is not a substrate [-]”.
